Common to all, as to type: in vivo
Test [1] deals with downybrome (Bromus tectorum). Nature of the test: Preemergence herbicidal activity, downybrome. To be noted: Bromus tectorum, pre-emergence, 336 h, Pre; for pest or weed control at 4483.4 g/ha: 4 lb/A. Put shortly: (§1)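 Step one: plant crop and weed seeds in soil flats. Step two: spray the acetone-dissolved, water-diluted compound (carrier 50 gal/A, dose in lb/A) immediately for preemergence, or after two weeks' growth for postemergence. Step three: about two weeks on, rate phytotoxicity as percent killed.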

The test system of test [2] is velvetleaf (Abutilon theophrasti). Nature of the test: Postemergence herbicidal activity, velvetleaf. To be noted: Abutilon theophrasti, post-emergence, 336 h; for pest or weed control at 4483.4 g/ha: 4 lb/A. Put shortly: (§2)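 Sown flats got a foliar or soil spray of compound in water-diluted acetone (carrier equivalent to 50 gallons/acre, rate in pounds per acre), given on the day of planting or, postemergence, once seedlings were two weeks old.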

For test [3], the system named is morningglory (Ipomoca spp.). Nature of the test: Preemergence herbicidal activity, morningglory. The conditions noted are these: Ipomoea, pre-emergence, 336 h; for pest or weed control at 4483.4 g/ha: 4 lb/A. Put shortly: as §1
Test [4] deals with velvetleaf (Abutilon theophrasti). Nature of the test: Preemergence herbicidal activity, velvetleaf. To be noted: Abutilon theophrasti, pre-emergence, 336 h, Pre; for pest or weed control at 4483.4 g/ha: 4 lb/A. An outline of the steps: as §1
Test [5] concerns tomato (Lycopersicon esculentum). Nature of the test: Postemergence herbicidal activity, tomato. To be noted: Solanum lycopersicum, post-emergence, 336 h, Post; for pest or weed control at 4483.4 g/ha: 4 lb/A. An outline of the steps:
as §1

For test [6], the system named is yellow nutsedge (Cyperus esculentus). Nature of the test: Preemergence herbicidal activity, yellow nutsedge. To be noted: Cyperus, pre-emergence, 336 h; for pest or weed control at 4483.4 g/ha: 4 lb/A. Put shortly: as §1
The subject of test [7] is wild oats (Avena fatua). Nature of the test: Preemergence herbicidal activity, wild oats. To be noted: Avena fatua, pre-emergence, 336 h, Pre, read-out: % control, Wild oat; for pest or weed control at 4483.4 g/ha: 4 lb/A. Put shortly: as §1
In test [8] the test system is morningglory (Ipomoca spp.). Nature of the test: Postemergence herbicidal activity, morningglory. To be noted: Ipomoea, post-emergence, 336 h; for pest or weed control at 4483.4 g/ha: 4 lb/A. An outline of the steps: as §1
Test [9] concerns cocklebur (Xanthium pensylvanicum). Nature of the test: Preemergence herbicidal activity, cocklebur. To be noted: Xanthium strumarium, pre-emergence, 336 h; for pest or weed control at 4483.4 g/ha: 4 lb/A. Put shortly:
as §1

Test [10] deals with foxtail (Setaria spp.). Nature of the test: Preemergence herbicidal activity, foxtail. The conditions noted are these: Setaria, pre-emergence, 336 h, Pre; for pest or weed control at 4483.4 g/ha: 4 lb/A. An outline of the steps: as §1
Test [11] relates to barnyardgrass (Echinochloa crusgalli). Nature of the test: Postemergence herbicidal activity, barnyardgrass. The conditions noted are these: Echinochloa crus-galli, post-emergence, 336 h, Post; for pest or weed control at 4483.4 g/ha: 4 lb/A. Put shortly:
as §2

The subject of test [12] is marigold (Tagetes spp.). Nature of the test: Preemergence herbicidal activity, marigold. The conditions noted are these: pre-emergence, 336 h; for pest or weed control at 4483.4 g/ha: 4 lb/A. Put shortly: as §1
Test [13] has as its system wild oats (Avena fatua). Nature of the test: Postemergence herbicidal activity, wild oats. The conditions noted are these: Avena fatua, post-emergence, 336 h, Post, read-out: % control, Wild oat; for pest or weed control at 4483.4 g/ha: 4 lb/A. Put shortly: as §1
Test [14] has as its system tomato (Lycopersicon esculentum). Nature of the test: Preemergence herbicidal activity, tomato. The conditions noted are these: Solanum lycopersicum, pre-emergence, 336 h, Pre; for pest or weed control at 4483.4 g/ha: 4 lb/A. An outline of the steps: as §1
Test [15] relates to barnyardgrass (Echinochloa crusgalli). Nature of the test: Preemergence herbicidal activity, barnyardgrass. The conditions noted are these: Echinochloa crus-galli, pre-emergence, 336 h, Pre; for pest or weed control at 4483.4 g/ha: 4 lb/A. Put shortly: as §2
The subject of test [16] is foxtail (Setaria spp.). Nature of the test: Postemergence herbicidal activity, foxtail. The conditions noted are these: Setaria, post-emergence, 336 h, Post; for pest or weed control at 4483.4 g/ha: 4 lb/A. Put shortly:
as §1

The test system of test [17] is cocklebur (Xanthium pensylvanicum). Nature of the test: Postemergence herbicidal activity, cocklebur. To be noted: Xanthium strumarium, post-emergence, 336 h; for pest or weed control at 4483.4 g/ha: 4 lb/A. An outline of the steps:
as §1

Test [18] relates to downybrome (Bromus tectorum). Nature of the test: Postemergence herbicidal activity, downybrome. To be noted: Bromus tectorum, post-emergence, 336 h, Post; for pest or weed control at 4483.4 g/ha: 4 lb/A. An outline of the steps: as §1
Test [19] relates to yellow nutsedge (Cyperus esculentus). Nature of the test: Postemergence herbicidal activity, yellow nutsedge. To be noted: Cyperus, post-emergence, 336 h; for pest or weed control at 4483.4 g/ha: 4 lb/A. An outline of the steps:
as §1

Test [20] concerns marigold (Tagetes spp.). Nature of the test: Postemergence herbicidal activity, marigold. The conditions noted are these: post-emergence, 336 h; for pest or weed control at 4483.4 g/ha: 4 lb/A. Put shortly:
as §1

Take `CCOC(=O)C(C)Oc1ccc(Sc2ccc(C(F)(F)F)cc2[N+](=O)[O-])cc1` (centres unmarked) [Example 48, Ethyl 2-[4-(2-nitro-4-trifluoromethylphenylthio)phenoxy] propionate]: the pest or weed control at 2241.7 g/ha came to 30% in test [1] (2 lb/A); 0% in test [2] (2 lb/A); 0% in test [3] (2 lb/A); 0% in test [4] (2 lb/A); 0% in test [5] (2 lb/A); 0% in [6] (2 lb/A). Besides, the pest or weed control at 2241.7 g/ha turned out to be 0% in [7] (2 lb/A); 0% in test [8] (2 lb/A); 0% in test [9] (2 lb/A); 95% in [10] (2 lb/A); 60% in [11] (2 lb/A); 0% in [12] (2 lb/A). The pest or weed control at 2241.7 g/ha in test [13] (2 lb/A) was found to be 80%; in [14] (2 lb/A) it was 0%; in test [15] (2 lb/A), 95%; in [16] (2 lb/A), 20%; in test [17] (2 lb/A) it was 0%; in [18] (2 lb/A) it was 0%. Also, the pest or weed control at 2241.7 g/ha in test [19] (2 lb/A) and in test [20] (2 lb/A) was 0% each time.

For `CCOC(=O)C(C)Oc1ccc([S+]([O-])c2ccccc2C(F)(F)F)cc1` (centres unmarked) [Example 49, Ethyl 2-[4-(2-trifluoromethylphenylsulfinyl)phenoxy]propionate], the pest or weed control at 4483.4 g/ha in [1] came to 0%; in test [2], 20%; in [3], 0%; in test [4], 0%; in test [5] it was 20%; in [6] it was 0%. The pest or weed control at 4483.4 g/ha in [7] was determined as 0%; in [8] it was 0%; in [9] it was 0%; in test [10], 0%; in test [11], 20%; in test [12], 0%. The pest or weed control at 4483.4 g/ha came out at 30% in test [13]; 0% in test [14]; 0% in [15]; 20% in [16]; 0% in test [17]; 0% in [18]. In addition, the pest or weed control at 4483.4 g/ha in test [19] and in test [20] was 0% in each case.

For the compound `CCOC(=O)C(C)Oc1ccc([S+]([O-])c2cccc(C(F)(F)F)c2)cc1` (centres unmarked) [Example 50], the pest or weed control at 4483.4 g/ha in test [1] stood at 0%; in test [2], 0%; in test [3] it was 0%; in test [4], 0%; in test [5], 20%; in test [6] it was 0%. The pest or weed control at 4483.4 g/ha turned out to be 0% in [7]; 0% in [8]; 0% in test [9]; 0% in [10]; 20% in [11]; 0% in test [12]. Also, the pest or weed control at 4483.4 g/ha in test [13] amounted to 20%; in test [14] it was 0%; in [15] it was 0%; in test [16], 0%; in test [17], 0%; in test [18], 0%. Moreover, the pest or weed control at 4483.4 g/ha in test [19] and in [20] was 0% each time.

Take `CCOC(=O)C(C)Oc1ccc([S+]([O-])c2ccc(C(F)(F)F)cc2)cc1` (centres unmarked) [Example 51]: the pest or weed control at 4483.4 g/ha in test [1], in test [2], in test [3], in test [4], in test [5] and in test [6] was 0% each time. The pest or weed control at 4483.4 g/ha in test [7] was 0%; in test [8] it was 0%; in [9], 0%; in test [10] it was 0%; in [11], 20%; in test [12] it was 0%. The pest or weed control at 4483.4 g/ha in test [13] stood at 20%; in test [14] it was 0%; in test [15], 0%; in test [16], 0%; in test [17], 0%; in test [18] it was 0%. Further, the pest or weed control at 4483.4 g/ha in test [19] and in test [20] was 0% throughout.
